Among the data in ChEMBL document CHEMBL3585344, “Thiazole-based aminopyrimidines and N-phenylpyrazolines as potent antimicrobial agents: synthesis and biological evaluation” (2014) are MFC99.5, MIC and MBC99.5 values, retold here.

Assay [1] deals with Trichoderma viride. In words: Fungicidal activity against Trichoderma viride IAM 5061 after 72 hrs by microdilution method. The class given is functional.
In assay [2] the test system is Aspergillus fumigatus. The assay is described as follows: Fungicidal activity against Aspergillus fumigatus isolated from human after 72 hrs by microdilution method. The format is functional.
Assay [3] relates to Trichoderma viride. In words: Antifungal activity against Trichoderma viride IAM 5061 after 72 hrs by microdilution method. The class given is functional. The conditions noted are these: IAM 5061, 72 h. For orientation: Dilution methods test growth across graded concentrations, often in twofold steps.
The test system of assay [4] is Aspergillus flavus. In words: Fungicidal activity against Aspergillus flavus ATCC 9643 after 72 hrs by microdilution method. The class given is functional.
Assay [5] relates to Talaromyces funiculosus. In words: Fungicidal activity against Penicillium funiculosum ATCC 36839 after 72 hrs by microdilution method. The class given is functional.
Assay [6] concerns Aspergillus versicolor. In words: Fungicidal activity against Aspergillus versicolor ATCC 11730 after 72 hrs by microdilution method. The format is functional.
The test system of assay [7] is Aspergillus ochraceus. In words: Antifungal activity against Aspergillus ochraceus ATCC 12066 after 72 hrs by microdilution method. The format is functional. The conditions noted are these: ATCC 12066, 72 h.
The subject of assay [8] is Penicillium ochrochloron. In words: Fungicidal activity against Penicillium ochrochloron ATCC 9112 after 72 hrs by microdilution method. The class given is functional.
Assay [9] relates to Aspergillus flavus. The assay is described as follows: Antifungal activity against Aspergillus flavus ATCC 9643 after 72 hrs by microdilution method. The format is functional. The conditions noted are these: ATCC 9643, 72 h.
Assay [10] relates to Aspergillus niger. The assay is described as follows: Antifungal activity against Aspergillus niger ATCC 6275 after 72 hrs by microdilution method. The class given is functional. The conditions noted are these: ATCC 6275, 72 h.
For assay [11], the system named is Talaromyces funiculosus. In words: Antifungal activity against Penicillium funiculosum ATCC 36839 after 72 hrs by microdilution method. The class given is functional. The conditions noted are these: ATCC 36839, 72 h.
Assay [12] deals with Aspergillus versicolor. In words: Antifungal activity against Aspergillus versicolor ATCC 11730 after 72 hrs by microdilution method. The conditions noted are these: ATCC 11730, 72 h. The class given is functional.
The test system of assay [13] is Aspergillus fumigatus. The assay is described as follows: Antifungal activity against Aspergillus fumigatus isolated from human after 72 hrs by microdilution method. The class given is functional.
The subject of assay [14] is Penicillium ochrochloron. In words: Antifungal activity against Penicillium ochrochloron ATCC 9112 after 72 hrs by microdilution method. The format is functional. The conditions noted are these: ATCC 9112, 72 h.
In assay [15] the test system is Aspergillus ochraceus. The assay is described as follows: Fungicidal activity against Aspergillus ochraceus ATCC 12066 after 72 hrs by microdilution method. The format is functional.
The subject of assay [16] is Aspergillus niger. The assay is described as follows: Fungicidal activity against Aspergillus niger ATCC 6275 after 72 hrs by microdilution method. The class given is functional.
The subject of assay [17] is Candida albicans. The assay is described as follows: Antifungal activity against Candida albicans ATCC 10231 isolated from human after 72 hrs by microdilution method. The format is functional. The conditions noted are these: ATCC 10231, 72 h.
The subject of assay [18] is Candida albicans. In words: Fungicidal activity against Candida albicans ATCC 10231 isolated from human after 72 hrs by microdilution method. The class given is functional.
The subject of assay [19] is Bacillus cereus. In words: Antibacterial activity against Bacillus cereus clinical isolate after 24 hrs by microdilution method. The class given is functional.
The subject of assay [20] is Enterococcus faecalis. In words: Antibacterial activity against Enterococcus faecalis ATCC 7080 isolated from human after 24 hrs by microdilution method. The format is functional. The conditions noted are these: ATCC 7080, 24 h.
The test system of assay [21] is Listeria monocytogenes. The assay is described as follows: Antibacterial activity against Listeria monocytogenes NCTC 7973 after 24 hrs by microdilution method. The format is functional. The conditions noted are these: NCTC 7973, 24 h.
In assay [22] the test system is Escherichia coli. The assay is described as follows: Antibacterial activity against Escherichia coli ATCC 35210 after 24 hrs by microdilution method. The class given is functional. The conditions noted are these: ATCC 35210, 24 h.
For assay [23], the system named is Escherichia coli. In words: Bactericidal activity against Escherichia coli ATCC 35210 after 72 hrs by microdilution method. The format is functional.
Assay [24] relates to Salmonella typhimurium. In words: Bactericidal activity against Salmonella typhimurium ATCC 13311 after 72 hrs by microdilution method. The format is functional, Salmonella enterica subsp. enterica serovar Typhimurium.
Assay [25] concerns Listeria monocytogenes. The assay is described as follows: Bactericidal activity against Listeria monocytogenes NCTC 7973 after 72 hrs by microdilution method. The format is functional.
Assay [26] deals with Enterobacter cloacae. The assay is described as follows: Antibacterial activity against Enterobacter cloacae ATCC 35030 isolated from human after 24 hrs by microdilution method. The class given is functional. The conditions noted are these: ATCC 35030, 24 h.
Assay [27] relates to Pseudomonas aeruginosa. In words: Antibacterial activity against Pseudomonas aeruginosa ATCC 27853 after 24 hrs by microdilution method. The format is functional. The conditions noted are these: ATCC 27853, 24 h.
Assay [28] relates to Salmonella typhimurium. The assay is described as follows: Antibacterial activity against Salmonella typhimurium ATCC 13311 after 24 hrs by microdilution method. The format is functional, Salmonella enterica subsp. enterica serovar Typhimurium. The conditions noted are these: Salmonella enterica, ATCC 13311, 24 h.
The subject of assay [29] is Staphylococcus aureus. In words: Antibacterial activity against Staphylococcus aureus ATCC 6538 after 24 hrs by microdilution method. The class given is functional. The conditions noted are these: ATCC 6538, 24 h.
Assay [30] concerns Enterococcus faecalis. In words: Bactericidal activity against Enterococcus faecalis ATCC 7080 isolated from human after 72 hrs by microdilution method. The class given is functional.
Assay [31] relates to Pseudomonas aeruginosa. The assay is described as follows: Bactericidal activity against Pseudomonas aeruginosa ATCC 27853 after 72 hrs by microdilution method. The class given is functional.
Assay [32] concerns Micrococcus flavus. The assay is described as follows: Bactericidal activity against Micrococcus flavus ATCC 10240 after 72 hrs by microdilution method. The class given is functional.
Assay [33] relates to Micrococcus flavus. The assay is described as follows: Antibacterial activity against Micrococcus flavus ATCC 10240 after 24 hrs by microdilution method. The class given is functional. The conditions noted are these: ATCC 10240, 24 h.
Assay [34] concerns Bacillus cereus. In words: Bactericidal activity against Bacillus cereus clinical isolate after 72 hrs by microdilution method. The format is functional.
The subject of assay [35] is Staphylococcus aureus. The assay is described as follows: Bactericidal activity against Staphylococcus aureus ATCC 6538 after 72 hrs by microdilution method. The format is functional.
Assay [36] concerns Enterobacter cloacae. The assay is described as follows: Bactericidal activity against Enterobacter cloacae ATCC 35030 isolated from human after 72 hrs by microdilution method. The class given is functional.

Structures are written as SMILES. Converted amounts (≈) assume the structure as drawn.

What is called MIC is the lowest concentration found to suppress growth. Read a high MIC as weaker potency.

As to `c1ccc(-c2ccc(C(c3ccccc3)n3ccnc3)cc2)cc1` (centres undefined) [BIFONAZOLE], the MFC99.5 against Trichoderma viride [1] amounted to 80 ×10⁻² umol/ml; with Aspergillus fumigatus [2], 64 ×10⁻² umol/ml; with Aspergillus flavus [4] it was 64 ×10⁻² umol/ml; against Talaromyces funiculosus [5], 80 ×10⁻² umol/ml; against Aspergillus versicolor [6], 64 ×10⁻² umol/ml; in the assay with Penicillium ochrochloron [8], 64 ×10⁻² umol/ml. For the same compound, the results for the MFC99.5 against Aspergillus ochraceus [15], in the assay with Aspergillus niger [16] and in the assay with Candida albicans [18] were 80 ×10⁻² umol/ml, 64 ×10⁻² umol/ml and 48.3 ×10⁻² umol/ml, respectively. Besides, the MIC in the assay on Trichoderma viride [3] is 640 µM (≈ 199 µg/mL); with Aspergillus ochraceus [7], 480 µM (≈ 149 µg/mL); against Aspergillus flavus [9] it was 480 µM (≈ 149 µg/mL); against Aspergillus niger [10], 480 µM (≈ 149 µg/mL); with Talaromyces funiculosus [11], 640 µM (≈ 199 µg/mL); in the assay on Aspergillus versicolor [12] it was 480 µM (≈ 149 µg/mL). Moreover, the MIC was 480 µM (≈ 149 µg/mL) against Aspergillus fumigatus [13], 480 µM (≈ 149 µg/mL) with Penicillium ochrochloron [14] and 322 µM (≈ 99.9 µg/mL) in the assay with Candida albicans [17].

With `CC(=O)N1CCN(c2ccc(OCC3COC(Cn4ccnc4)(c4ccc(Cl)cc4Cl)O3)cc2)CC1` (centres undefined) [KETOCONAZOLE], the MFC99.5 against Trichoderma viride [1] turned out to be 570 ×10⁻² umol/ml; against Aspergillus fumigatus [2], 95 ×10⁻² umol/ml; with Aspergillus flavus [4], 380 ×10⁻² umol/ml; in the assay with Talaromyces funiculosus [5], 95 ×10⁻² umol/ml; against Aspergillus versicolor [6], 380 ×10⁻² umol/ml; against Penicillium ochrochloron [8], 380 ×10⁻² umol/ml. For the same compound, the MFC99.5 turned out to be 95 ×10⁻² umol/ml in the assay with Aspergillus ochraceus [15], 95 ×10⁻² umol/ml in the assay on Aspergillus niger [16] and 94 ×10⁻² umol/ml against Candida albicans [18]. Further, the MIC turned out to be 4750 µM (≈ 2520 µg/mL) with Trichoderma viride [3]; 380 µM (≈ 202 µg/mL) against Aspergillus ochraceus [7]; 2850 µM (≈ 1510 µg/mL) against Aspergillus flavus [9]; 380 µM (≈ 202 µg/mL) against Aspergillus niger [10]; 380 µM (≈ 202 µg/mL) with Talaromyces funiculosus [11]; 2850 µM (≈ 1510 µg/mL) in the assay on Aspergillus versicolor [12]. The MIC amounted to 380 µM (≈ 202 µg/mL) against Aspergillus fumigatus [13], 3800 µM (≈ 2020 µg/mL) in the assay with Penicillium ochrochloron [14] and 376 µM (≈ 200 µg/mL) with Candida albicans [17].

In the case of `CN[C@@H]1[C@H](O[C@H]2[C@H](O[C@H]3[C@H](O)[C@@H](O)[C@H](N=C(N)N)[C@@H](O)[C@@H]3N=C(N)N)O[C@@H](C)[C@]2(O)C=O)O[C@@H](CO)[C@H](O)[C@H]1O` [STREPTOMYCIN], the MIC worked out at 43 µM (≈ 25 µg/mL) against Bacillus cereus [19]; 43 µM (≈ 25 µg/mL) in the assay with Enterococcus faecalis [20]; 258 µM (≈ 150 µg/mL) against Listeria monocytogenes [21]; 172 µM (≈ 100 µg/mL) against Escherichia coli [22]; 43 µM (≈ 25 µg/mL) in the assay on Enterobacter cloacae [26]; 172 µM (≈ 100 µg/mL) with Pseudomonas aeruginosa [27]. In addition, the values for the MIC against Salmonella typhimurium [28], in the assay with Staphylococcus aureus [29] and in the assay on Micrococcus flavus [33] were 172 µM (≈ 100 µg/mL), 172 µM (≈ 100 µg/mL) and 86 µM (≈ 50 µg/mL), respectively. Besides, the MBC99.5 is 34.4 ×10⁻² umol/ml against Escherichia coli [23]; 34.4 ×10⁻² umol/ml against Salmonella typhimurium [24]; 51.6 ×10⁻² umol/ml in the assay on Listeria monocytogenes [25]; 8.6 ×10⁻² umol/ml against Enterococcus faecalis [30]; 34.4 ×10⁻² umol/ml in the assay on Pseudomonas aeruginosa [31]; 17.2 ×10⁻² umol/ml against Micrococcus flavus [32]. In addition, the MBC99.5 against Bacillus cereus [34] is recorded as 8.6 ×10⁻² umol/ml; in the assay with Staphylococcus aureus [35], 34.4 ×10⁻² umol/ml; in the assay with Enterobacter cloacae [36], 8.6 ×10⁻² umol/ml.
